Reference: patent EP0940081A1, “Combinations of active agents and disinfectants, preservatives and antiseptics containing same” (Bode Chemie GmbH & Co., priority 1998, dated 1999)
Where two headings read alike, the source gives them in different places.

Tests used:
Enterococcus faecium = test: Agar incorporation test, bacteriostatic activity; format: cell-based; set-up: key: ⊕⊕: ungehemmtes Wachstum; ⊕: vermindertes Wachstum; -: absolute Hemmung (a. H.); conditions: 24 h bei 36 °C
Excerpt: (§1) Methodik: Percarbamid und Dodecylthiouroniumchlorid werden unter städigem Durchmischen bis zur vollständigen Homogenisierung erwärmt. Die Prüfung der Kombination im Vergleich zu den entsprechenden Monowirkstoffen auf bakteriostatische Wirksamkeit erfolgte im Agarinkorporationstest. Die zu untersuchenden Substanzen wurden in Wasser standardisierter Härte gelöst. Die Konzentration der Testsubstanzen im Nähragar wurde in einer geometrischen Reihe auf der Basis 2 abgestuft. Zum Beimpfen der Testplatten wurden die im Beispiel 1 genannten Testkeime 6 h in Caseinpepton-Sojamehlpepton-Lösung bebrütet und so in eine logarithmische Wachstumsphase gebracht. Danach wurden die Agarplatten sternförmig sektorenweise mit jeweils einer ? abgestrichenen Öse beimpft. Der Sektor von Proteus mirabilis wurde durch Gräben abgetrennt, um das Schwärmen zu verhindern. Nach 24 h Bebrütung bei 36 °C erfolgte die Bewertung des Bakterienwachstums unter Vergleich mit substanzfreien Kontrollplatten nach folgendem Schema: ++++ ungehemmtes Wachstum +++ geringe Wachstumshemmung (maximal ¾ des Wachstums der Kontrollen) ++ mäßige Wachstumshemmung (maximal ½ des Wachstums der Kontrollen) + starke Wachstumshemmung (maximal ¼ des Wachstums der Kontrollen) Das sog. ? verminderte Wachstum" (v. W.) umfaßt die Bereiche + bis +++ - absolute Hemmung (a. H.)
(§2) In den Tabellen 5, 6 und 7 bedeuten ⊕⊕ ungehemmtes Wachstum und ⊕ vermindertes Wachstum.

Escherichia coli = test: Agar incorporation test, bacteriostatic activity; format: cell-based; set-up: key: ⊕⊕: ungehemmtes Wachstum; ⊕: vermindertes Wachstum; -: absolute Hemmung (a. H.); conditions: 24 h bei 36 °C
Excerpt: as §1, §2

Proteus mirabilis = test: Agar incorporation test, bacteriostatic activity; format: cell-based; set-up: key: ⊕⊕: ungehemmtes Wachstum; ⊕: vermindertes Wachstum; -: absolute Hemmung (a. H.); conditions: 24 h bei 36 °C
Excerpt: as §1, §2

Staphylococcus aureus = test: Agar incorporation test, bacteriostatic activity; format: cell-based; set-up: key: ⊕⊕: ungehemmtes Wachstum; ⊕: vermindertes Wachstum; -: absolute Hemmung (a. H.); conditions: 24 h bei 36 °C
Excerpt: as §1, §2

Pseudomonas aeruginosa = test: Agar incorporation test, bacteriostatic activity; format: cell-based; set-up: key to Bakteriostatische Wirksamkeit (Wachstum): ⊕⊕: ungehemmtes Wachstum; ⊕: vermindertes Wachstum; -: absolute Hemmung (a. H.); conditions: for Bakteriostatische Wirksamkeit (Wachstum): 24 h bei 36 °C
Excerpt: as §1, §2

[1] = tested on: Sporen von Bacillus subtilis var. niger ATCC 9372; test: Sporicidal activity on spore test strips; format: cell-based; conditions: Monowirkstoff; Einwirkungszeit 3 Tage
Excerpt: Methodik: Kommerzielle Teststreifen mit 10^6 Sporen von Bacillus subtilis var. niger ATCC 9372 (BAG-Bio Strips, Biologische Analysensystem GmbH Lich) wurden für 3 Tage in eine Lösung der Prüfsubstanz eingelegt. Danach wurden die Teststreifen in eine Nährlösung überführt und 7 Tage bebrütet.

[2] = tested on: FL-Linie (menschliche Amnionzellen); test: Cytotoxicity, cell count of monolayer culture after 24 h exposure; format: cell-based, human; conditions: for Median der Zellzahl: 24 h
Description: Methodik: Die Zytotoxizität wird an der FL-Linie (menschliche Amnionzellen) geprüft. 2-3 Tage nach der Zelleinsaat werden die Zellen, nachdem sie als einschichtige Zellkultur (Monolayer) vorliegen, nach Medienwechsel für 24 h mit der Prüfsubstanz exponiert, danach abgelöst und die Zellzahl in % zur Kontrolle mit dem Zellzähler Universal 87001 (mölab, Hilden) ermittelt.

[3] = tested on: humanen Amnionepithelzellen; format: cell-based, human
Excerpt: Methodik: Die Untersuchungen wurden an einer Perfusionszellkultur mit humanen Amnionepithelzellen durchgeführt. Der Glucoseverbrauch wurde kontinuierlich von 1 bis 96 Stunden biosensorisch gemessen (Jülich et al., im Druck). Die Prüfsubstanzen wirkten von der 25. bis 48. Stunde ein.

[4] = tested on: Enterococcus faecium ATCC 6057; test: Röhrchenverdünnungstest, bacteriostatic activity; format: cell-based; set-up: key: +: Wachstum; -: kein Wachstum; conditions: 72 h bei 37 °C
Description: (§3) Methodik der Prüfung auf bakteriostatische und fungistatische Wirksamkeit im Röhrchenverdünnungtest: In sterile Reagenzröhrchen werden je 5 ml der Verdünnungen der Prüfsubstanzen in Wasser standardisierter Härte mit 5 ml doppelt konzentrierter Caseinpepton-Sojamehl-Pepton-Lösung (CSL) vermischt. Zur Bestimmung der bakteriostatischen Wirkung werden die Röhrchen durch Zugabe von 0,1 ml einer 1 : 10 mit CSL verdünnten, 24 h bei 37 °C bebrüteten CSL-Kultur beimpft. Zur Prüfung der fungistatischen Wirkung werden je 0,1 ml einer unverdünnten, 72 h bei 37 °C bebrüteten CSL-Kultur von Candida albicans verwendet. Die Auswertung erfolgt nach einer Bebrütung von 72 h bei 37 °C. Es erfolgte außerdem eine Nachbeimpfung von CSA-Platten durch Ausstreichen der ? 72 h-Testlösungen", um das Wachstum der Testkeime zu beurteilen. Folgende Testkeime wurden eingesetzt: Sa: Staphylococcus aureus ATCC 6538 Ef: Enterococcus faecium ATCC 6057 Ec: Escherichia coli ATCC 11229 Pm: Proteus mirabilis ATCC 14153 Pa: Pseudomonas aeruginosa ATCC 15442 Ca: Candida albicans ATCC 10231

[5] = tested on: Escherichia coli ATCC 11229; test: Röhrchenverdünnungstest, bacteriostatic activity; format: cell-based; set-up: key: +: Wachstum; -: kein Wachstum; conditions: 72 h bei 37 °C
Description: as §3

[6] = tested on: Proteus mirabilis ATCC 14153; test: Röhrchenverdünnungstest, bacteriostatic activity; format: cell-based; set-up: key: +: Wachstum; -: kein Wachstum; conditions: 72 h bei 37 °C
Description: as §3

[7] = tested on: Pseudomonas aeruginosa ATCC 15442; test: Röhrchenverdünnungstest, bacteriostatic activity; format: cell-based; set-up: key: +: Wachstum; -: kein Wachstum; conditions: 72 h bei 37 °C
Description: as §3

[8] = tested on: Staphylococcus aureus ATCC 6538; test: Röhrchenverdünnungstest, bacteriostatic activity; format: cell-based; set-up: key: +: Wachstum; -: kein Wachstum; conditions: 72 h bei 37 °C
Description: as §3

[9] = tested on: Candida albicans ATCC 10231; test: Röhrchenverdünnungstest, fungistatic activity; format: cell-based; set-up: key: +: Wachstum; -: kein Wachstum; conditions: 72 h bei 37 °C
Description: as §3

[10] = tested on: Candida albicans ATCC 10231; test: Quantitative suspension test, fungicidal activity (DGHM guideline); format: cell-based
Excerpt: Methodik: Untersucht wurde ein Gemisch G 1 von 99,4 % MMPP und 0,6 % Decylthiouroniumbromid und ein Gemisch G 2 von 99,7 % MMPP und 0,3 % Decylthiouroniumbromid im Vergleich zu MMPP als Monowirkstoff entsprechend der Richtlinie für die Prüfung und Bewertung chemischer Desinfektionsverfahren der Deutschen Gesellschaft für Hygiene und Mikrobiologie. Testkeim: Candida albicans ATCC 10231 Enthemmer: Tween, Lecithin, Cystein (TLC)

[11] = Konzentration in Wasser 0,0015 %
[12] = Konzentration in Wasser 0,003 %
[13] = Konzentration in Wasser 0,006 %
[14] = Konzentration in Wasser 0,012 %
[15] = Konzentration in Wasser 0,025 %

**Q.** Which results are given for Wasserstoffperoxid?
**A.** Bakteriostatische Wirksamkeit (Wachstum) (Enterococcus faecium; Konzentration in Wasser 0,1 %): -; Bakteriostatische Wirksamkeit (Wachstum) (Enterococcus faecium; Konzentration in Wasser 0,2 %): -; Bakteriostatische Wirksamkeit (Wachstum) (Enterococcus faecium; Konzentration in Wasser 0,4 %): -; Bakteriostatische Wirksamkeit (Wachstum) (Enterococcus faecium; Konzentration in Wasser 0,05 %): -; Bakteriostatische Wirksamkeit (Wachstum) (Enterococcus faecium; Konzentration in Wasser 0,8 %): -; Bakteriostatische Wirksamkeit (Wachstum) (Enterococcus faecium; [11]): ⊕⊕; Bakteriostatische Wirksamkeit (Wachstum) (Enterococcus faecium; [12]): ⊕⊕; Bakteriostatische Wirksamkeit (Wachstum) (Enterococcus faecium; [13]): ⊕; Bakteriostatische Wirksamkeit (Wachstum) (Enterococcus faecium; [14]): -; Bakteriostatische Wirksamkeit (Wachstum) (Enterococcus faecium; [15]): -; Bakteriostatische Wirksamkeit (Wachstum) (Escherichia coli; Konzentration in Wasser 0,1 %): -; Bakteriostatische Wirksamkeit (Wachstum) (Escherichia coli; Konzentration in Wasser 0,2 %): -; Bakteriostatische Wirksamkeit (Wachstum) (Escherichia coli; Konzentration in Wasser 0,4 %): -; Bakteriostatische Wirksamkeit (Wachstum) (Escherichia coli; Konzentration in Wasser 0,05 %): -; Bakteriostatische Wirksamkeit (Wachstum) (Escherichia coli; Konzentration in Wasser 0,8 %): -; Bakteriostatische Wirksamkeit (Wachstum) (Escherichia coli; [11]): ⊕⊕; Bakteriostatische Wirksamkeit (Wachstum) (Escherichia coli; [12]): ⊕⊕; Bakteriostatische Wirksamkeit (Wachstum) (Escherichia coli; [13]): ⊕⊕; Bakteriostatische Wirksamkeit (Wachstum) (Escherichia coli; [14]): -; Bakteriostatische Wirksamkeit (Wachstum) (Escherichia coli; [15]): -; Bakteriostatische Wirksamkeit (Wachstum) (Proteus mirabilis; Konzentration in Wasser 0,1 %): -; Bakteriostatische Wirksamkeit (Wachstum) (Proteus mirabilis; Konzentration in Wasser 0,2 %): -; Bakteriostatische Wirksamkeit (Wachstum) (Proteus mirabilis; Konzentration in Wasser 0,4 %): -; Bakteriostatische Wirksamkeit (Wachstum) (Proteus mirabilis; Konzentration in Wasser 0,05 %): -; Bakteriostatische Wirksamkeit (Wachstum) (Proteus mirabilis; Konzentration in Wasser 0,8 %): -; Bakteriostatische Wirksamkeit (Wachstum) (Proteus mirabilis; [11]): ⊕⊕; Bakteriostatische Wirksamkeit (Wachstum) (Proteus mirabilis; [12]): ⊕⊕; Bakteriostatische Wirksamkeit (Wachstum) (Proteus mirabilis; [13]): ⊕⊕; Bakteriostatische Wirksamkeit (Wachstum) (Proteus mirabilis; [14]): -; Bakteriostatische Wirksamkeit (Wachstum) (Proteus mirabilis; [15]): -; Bakteriostatische Wirksamkeit (Wachstum) (Staphylococcus aureus; Konzentration in Wasser 0,1 %): -; Bakteriostatische Wirksamkeit (Wachstum) (Staphylococcus aureus; Konzentration in Wasser 0,2 %): -; Bakteriostatische Wirksamkeit (Wachstum) (Staphylococcus aureus; Konzentration in Wasser 0,4 %): -; Bakteriostatische Wirksamkeit (Wachstum) (Staphylococcus aureus; Konzentration in Wasser 0,05 %): -; Bakteriostatische Wirksamkeit (Wachstum) (Staphylococcus aureus; Konzentration in Wasser 0,8 %): -; Bakteriostatische Wirksamkeit (Wachstum) (Staphylococcus aureus; [11]): ⊕⊕; Bakteriostatische Wirksamkeit (Wachstum) (Staphylococcus aureus; [12]): ⊕⊕; Bakteriostatische Wirksamkeit (Wachstum) (Staphylococcus aureus; [13]): ⊕⊕; Bakteriostatische Wirksamkeit (Wachstum) (Staphylococcus aureus; [14]): -; Bakteriostatische Wirksamkeit (Wachstum) (Staphylococcus aureus; [15]): -; Bakteriostatische Wirksamkeit (Wachstum) (Pseudomonas aeruginosa; Konzentration in Wasser 0,1 %): -; Bakteriostatische Wirksamkeit (Wachstum) (Pseudomonas aeruginosa; Konzentration in Wasser 0,2 %): -; Bakteriostatische Wirksamkeit (Wachstum) (Pseudomonas aeruginosa; Konzentration in Wasser 0,4 %): -; Bakteriostatische Wirksamkeit (Wachstum) (Pseudomonas aeruginosa; Konzentration in Wasser 0,05 %): -; Bakteriostatische Wirksamkeit (Wachstum) (Pseudomonas aeruginosa; Konzentration in Wasser 0,8 %): -; Bakteriostatische Wirksamkeit (Wachstum) (Pseudomonas aeruginosa; [11]): ⊕⊕; Bakteriostatische Wirksamkeit (Wachstum) (Pseudomonas aeruginosa; [12]): ⊕⊕; Bakteriostatische Wirksamkeit (Wachstum) (Pseudomonas aeruginosa; [13]): ⊕⊕; Bakteriostatische Wirksamkeit (Wachstum) (Pseudomonas aeruginosa; [14]): ⊕⊕; Bakteriostatische Wirksamkeit (Wachstum) (Pseudomonas aeruginosa; [15]): ⊕⊕; Konzentration, durch die Pseudomonas aeruginosa gehemmt wird (minimale Hemmkonzentration) (Pseudomonas aeruginosa; single substance, resistentester Testkeim): 0,05%; Konzentration erforderlich zur Erreichung dieses Effektes (Reduktion der Sporen von 6 log-Stufen) [1]: 0,6%; Zellwachstum [2]: vollständigen Inhibierung des Zellwachstums; Median der Zellzahl ([2]; Prüfkonzentration 0,001 %): 17,9 % der Kontrolle; Median der Zellzahl ([2]; Prüfkonzentration 0,0015 %): 7,3 % der Kontrolle; Glucosestoffwechsel der FL-Zellen [3]: signifikante, aber reversible Verminderung

**Q.** For `O=C(O)c1ccccc1C(=O)OO` [MMPP, Magnesiummonoperphthalat], which “Wachstum des Testkeims (Minimale Hemmkonzentrationen)” value (from here on “Wachstum des Testkeims”) ([4]; geprüfte Konzentration 0,85%) is on record?
**A.** -

**Q.** What about the “Wachstum des Testkeims” value ([4]; geprüfte Konzentration 0,425%) of the same compound?
**A.** +

**Q.** And the “Wachstum des Testkeims” value ([5]; geprüfte Konzentration 0,85%)?
**A.** -

**Q.** And the “Wachstum des Testkeims” value ([5]; geprüfte Konzentration 0,425%)?
**A.** -

**Q.** And the “Wachstum des Testkeims” value ([6]; geprüfte Konzentration 0,85%)?
**A.** -

**Q.** What about the “Wachstum des Testkeims” value ([6]; geprüfte Konzentration 0,425%) of the same compound?
**A.** +

**Q.** And the “Wachstum des Testkeims” value ([7]; geprüfte Konzentration 0,85%)?
**A.** -

**Q.** And the “Wachstum des Testkeims” value ([7]; geprüfte Konzentration 0,425%)?
**A.** -

**Q.** What about the “Wachstum des Testkeims” value ([8]; geprüfte Konzentration 0,5%) of the same compound?
**A.** +

**Q.** And the “Wachstum des Testkeims” value ([8]; geprüfte Konzentration 0,6%)?
**A.** -

**Q.** And the “Wachstum des Testkeims” value ([8]; geprüfte Konzentration 0,85%)?
**A.** -

**Q.** And the “Wachstum des Testkeims” value ([8]; geprüfte Konzentration 0,425%)?
**A.** +

**Q.** What about the “Wachstum des Testkeims” value ([9]; geprüfte Konzentration 0,85%) of the same compound?
**A.** -

**Q.** And the “Wachstum des Testkeims” value ([9]; geprüfte Konzentration 0,425%)?
**A.** +

**Q.** What about the log reduction at 0.5 % ([10]; ATCC10231, 5 min, 0,5 %, x = 5, read-out: log. Reduktionsfaktoren bei einer Einwirkungszeit von x min) of the same compound?
**A.** 0.55

**Q.** And the log reduction at 0.6 % ([10]; ATCC10231, 5 min, 0,6 %, x = 5, read-out: log. Reduktionsfaktoren bei einer Einwirkungszeit von x min)?
**A.** 0.83

**Q.** What about the log reduction at 0.425 % ([10]; ATCC10231, 5 min, 0,425 %, x = 5, read-out: log. Reduktionsfaktoren bei einer Einwirkungszeit von x min) of the same compound?
**A.** 1

**Q.** And the log reduction at 0.5 % ([10]; ATCC10231, 0.25 h, 0,5 %, x = 15, read-out: log. Reduktionsfaktoren bei einer Einwirkungszeit von x min)?
**A.** 0.88

**Q.** And the log reduction at 0.6 % ([10]; ATCC10231, 0.25 h, 0,6 %, x = 15, read-out: log. Reduktionsfaktoren bei einer Einwirkungszeit von x min)?
**A.** 0.91

**Q.** And the log reduction at 0.425 % ([10]; ATCC10231, 0.25 h, 0,425 %, x = 15, read-out: log. Reduktionsfaktoren bei einer Einwirkungszeit von x min)?
**A.** 1.5

**Q.** And the log reduction at 0.5 % ([10]; ATCC10231, 0.5 h, 0,5 %, x = 30, read-out: log. Reduktionsfaktoren bei einer Einwirkungszeit von x min)?
**A.** 1.28

**Q.** What about the log reduction at 0.6 % ([10]; ATCC10231, 0.5 h, 0,6 %, x = 30, read-out: log. Reduktionsfaktoren bei einer Einwirkungszeit von x min) of the same compound?
**A.** 1.7

**Q.** And the log reduction at 0.425 % ([10]; ATCC10231, 0.5 h, 0,425 %, x = 30, read-out: log. Reduktionsfaktoren bei einer Einwirkungszeit von x min)?
**A.** 3.6
